# Tested on: Unknown protein yeast genes
# Experiment: DNA chip mRNA expression in yeast, unknown protein yeast genes (Table 1)
# Format: cell-based, Saccharomyces cerevisiae S288C
# Description: Yeast (Saccharomyces cerevisiae S288C (α SUC2mal mel gap2 CUP1)) were incubated at 25° C. on YPD medium (yeast extract 1%, polypepton 2%, glucose 2%). One of toxic chemical substances was added to the cells at logarithmic growth phase, and the cells were further incubated for two hours. Cells were cultured without any chemical substance in the same condition, and were used as control. Concentrations of the chemical substances were defined to inhibit the growth of the yeast but not lead to death.
# After completion of the incubation, the culture was centrifuged to collect the cells. To the cells, sodium acetate buffer (50 mM sodium acetate, 10 mM EDTA, 1% SDS) was added, and the mixture was shaken at 65° C. for five minutes, followed by returning to room temperature, and obtaining the supernatant, of which the procedures were repeated two times. To the supernatant, ½ amount of a solution of phenol/chloroform was added, and the mixture was centrifuged to give a supernatant, which was added with an equal amount of chloroform, and the mixture was centrifuged to give a supernatant. To the supernatant, an equal amount of isopropanol containing 0.3 M sodium acetate was added, and the mixture was allowed to stand at room temperature for 30 minutes, after which the mixture was centrifuged to give a sediment of the whole RNAs. Seventy % ethanol was added to the sediment, and the mixture was again centrifuged to give a sediment, which was then dried and dissolved in water. mRNA was isolated from the whole RNAs as followings. In view of the fact that a poly A chain is attached to the 3′ terminus of mRNA, a polynucleotide having a poly T structure which was immobilized on the surface of latex beads was used to trap the mRNA, and then the mRNA was washed and eluted with spine column (Oligotex-dT30<Super>mRNA Purification Kit, Takara). Reverse transcription of the mRNA was conducted with a reverse transcriptase (Super Script II Reverse Transcriptase; catalogue No. 18064-014, GibcoBRL) using fluorescence-labeled nucleotides to give cDNAs that were introduced with Cy3-dUTP or Cy5-dUTP during the reverse transcription.
# The labeled cDNAs were dissolved in TE buffer (10mM Tris-HCl/1 mM EDTA, pH8.0), and the solution was dropped on the DNA chip containing the whole genes of yeast (DNA Chip Research Inc. Japan) so that the cDNAs were hybridized on the DNA chip at 65° C. for over 12 hours. The fluoresces intensity of the DNA chip was read with a scanner, and the ratio relative to the fluorescence intensity resulting from the absence of chemical substance was estimated as the following, which is shown in Tables 1 to 9: […]
smiles,measurement,setting,value
"Cl[C@H]1[C@H](Cl)[C@@H](Cl)[C@@H](Cl)[C@H](Cl)[C@H]1Cl [(7), γ-hexachlorocyclohexane]",The level of expressed mRNA in the presence of chemical substance/The level of expressed mRNA in the absence of chemical substance,"yeast gene YAL053W, incubated two hours with chemical substance",0.7
same,The level of expressed mRNA in the presence of chemical substance/The level of expressed mRNA in the absence of chemical substance,yeast gene YBL048W,1.9
same,The level of expressed mRNA in the presence of chemical substance/The level of expressed mRNA in the absence of chemical substance,yeast gene YBL107C,2.1
same,The level of expressed mRNA in the presence of chemical substance/The level of expressed mRNA in the absence of chemical substance,"yeast gene YDL072C, incubated two hours with chemical substance",1.8
same,The level of expressed mRNA in the presence of chemical substance/The level of expressed mRNA in the absence of chemical substance,"yeast gene YDL204W, incubated two hours with chemical substance",3.2
same,The level of expressed mRNA in the presence of chemical substance/The level of expressed mRNA in the absence of chemical substance,"yeast gene YDL222C, incubated two hours with chemical substance",1.0
same,The level of expressed mRNA in the presence of chemical substance/The level of expressed mRNA in the absence of chemical substance,"yeast gene YDR330W, incubated two hours with chemical substance",1.3
same,The level of expressed mRNA in the presence of chemical substance/The level of expressed mRNA in the absence of chemical substance,"yeast gene YDR411C, incubated two hours with chemical substance",2.0
same,The level of expressed mRNA in the presence of chemical substance/The level of expressed mRNA in the absence of chemical substance,"yeast gene YDR511W, incubated two hours with chemical substance",1.5
same,The level of expressed mRNA in the presence of chemical substance/The level of expressed mRNA in the absence of chemical substance,"yeast gene YDR545W, incubated two hours with chemical substance",1.2
same,The level of expressed mRNA in the presence of chemical substance/The level of expressed mRNA in the absence of chemical substance,"yeast gene YEL001C, incubated two hours with chemical substance",1.1
same,The level of expressed mRNA in the presence of chemical substance/The level of expressed mRNA in the absence of chemical substance,"yeast gene YER004W, incubated two hours with chemical substance",1.4
same,The level of expressed mRNA in the presence of chemical substance/The level of expressed mRNA in the absence of chemical substance,"yeast gene YER035W, incubated two hours with chemical substance",1.9
same,The level of expressed mRNA in the presence of chemical substance/The level of expressed mRNA in the absence of chemical substance,"yeast gene YER079W, incubated two hours with chemical substance",1.9
same,The level of expressed mRNA in the presence of chemical substance/The level of expressed mRNA in the absence of chemical substance,"yeast gene YER106W, incubated two hours with chemical substance",1.0
same,The level of expressed mRNA in the presence of chemical substance/The level of expressed mRNA in the absence of chemical substance,"yeast gene YER158C, incubated two hours with chemical substance",1.2
same,The level of expressed mRNA in the presence of chemical substance/The level of expressed mRNA in the absence of chemical substance,"yeast gene YER163C, incubated two hours with chemical substance",1.5
same,The level of expressed mRNA in the presence of chemical substance/The level of expressed mRNA in the absence of chemical substance,"yeast gene YER175C, incubated two hours with chemical substance",2.3
same,The level of expressed mRNA in the presence of chemical substance/The level of expressed mRNA in the absence of chemical substance,"yeast gene YFL006W, incubated two hours with chemical substance",1.0
same,The level of expressed mRNA in the presence of chemical substance/The level of expressed mRNA in the absence of chemical substance,"yeast gene YFL010C, incubated two hours with chemical substance",1.5
same,The level of expressed mRNA in the presence of chemical substance/The level of expressed mRNA in the absence of chemical substance,yeast gene YFL024C,3.3
same,The level of expressed mRNA in the presence of chemical substance/The level of expressed mRNA in the absence of chemical substance,"yeast gene YFL032W, incubated two hours with chemical substance",1.1
same,The level of expressed mRNA in the presence of chemical substance/The level of expressed mRNA in the absence of chemical substance,"yeast gene YGL037C, incubated two hours with chemical substance",2.9
same,The level of expressed mRNA in the presence of chemical substance/The level of expressed mRNA in the absence of chemical substance,"yeast gene YGL047W, incubated two hours with chemical substance",1.7
same,The level of expressed mRNA in the presence of chemical substance/The level of expressed mRNA in the absence of chemical substance,"yeast gene YGL053W, incubated two hours with chemical substance",3.7
same,The level of expressed mRNA in the presence of chemical substance/The level of expressed mRNA in the absence of chemical substance,yeast gene YGL121C,4.7
same,The level of expressed mRNA in the presence of chemical substance/The level of expressed mRNA in the absence of chemical substance,"yeast gene YGL199C, incubated two hours with chemical substance",1.3
same,The level of expressed mRNA in the presence of chemical substance/The level of expressed mRNA in the absence of chemical substance,"yeast gene YGR101W, incubated two hours with chemical substance",1.5
same,The level of expressed mRNA in the presence of chemical substance/The level of expressed mRNA in the absence of chemical substance,yeast gene YGR110W,1.7
same,The level of expressed mRNA in the presence of chemical substance/The level of expressed mRNA in the absence of chemical substance,"yeast gene YGR130C, incubated two hours with chemical substance",1.3
same,The level of expressed mRNA in the presence of chemical substance/The level of expressed mRNA in the absence of chemical substance,"yeast gene YGR154C, incubated two hours with chemical substance",2.0
same,The level of expressed mRNA in the presence of chemical substance/The level of expressed mRNA in the absence of chemical substance,"yeast gene YGR221C, incubated two hours with chemical substance",1.2
same,The level of expressed mRNA in the presence of chemical substance/The level of expressed mRNA in the absence of chemical substance,"yeast gene YHR138C, incubated two hours with chemical substance",3.0
same,The level of expressed mRNA in the presence of chemical substance/The level of expressed mRNA in the absence of chemical substance,"yeast gene YHR199C, incubated two hours with chemical substance",1.1
same,The level of expressed mRNA in the presence of chemical substance/The level of expressed mRNA in the absence of chemical substance,"yeast gene YIL023C, incubated two hours with chemical substance",1.2
same,The level of expressed mRNA in the presence of chemical substance/The level of expressed mRNA in the absence of chemical substance,"yeast gene YIL041W, incubated two hours with chemical substance",0.8
same,The level of expressed mRNA in the presence of chemical substance/The level of expressed mRNA in the absence of chemical substance,"yeast gene YIL087C, incubated two hours with chemical substance",1.8
same,The level of expressed mRNA in the presence of chemical substance/The level of expressed mRNA in the absence of chemical substance,"yeast gene YJL057C, incubated two hours with chemical substance",2.7
same,The level of expressed mRNA in the presence of chemical substance/The level of expressed mRNA in the absence of chemical substance,"yeast gene YJL066C, incubated two hours with chemical substance",1.6
same,The level of expressed mRNA in the presence of chemical substance/The level of expressed mRNA in the absence of chemical substance,"yeast gene YJL082W, incubated two hours with chemical substance",0.4
same,The level of expressed mRNA in the presence of chemical substance/The level of expressed mRNA in the absence of chemical substance,"yeast gene YJL151C, incubated two hours with chemical substance",1.4
same,The level of expressed mRNA in the presence of chemical substance/The level of expressed mRNA in the absence of chemical substance,"yeast gene YJL152W, incubated two hours with chemical substance",1.2
same,The level of expressed mRNA in the presence of chemical substance/The level of expressed mRNA in the absence of chemical substance,"yeast gene YJL161W, incubated two hours with chemical substance",3.6
same,The level of expressed mRNA in the presence of chemical substance/The level of expressed mRNA in the absence of chemical substance,"yeast gene YJL171C, incubated two hours with chemical substance",1.4
same,The level of expressed mRNA in the presence of chemical substance/The level of expressed mRNA in the absence of chemical substance,"yeast gene YJR008W, incubated two hours with chemical substance",2.9
same,The level of expressed mRNA in the presence of chemical substance/The level of expressed mRNA in the absence of chemical substance,"yeast gene YJR054W, incubated two hours with chemical substance",0.9
same,The level of expressed mRNA in the presence of chemical substance/The level of expressed mRNA in the absence of chemical substance,yeast gene YKL071W,3.7
same,The level of expressed mRNA in the presence of chemical substance/The level of expressed mRNA in the absence of chemical substance,"yeast gene YKL086W, incubated two hours with chemical substance",0.7
same,The level of expressed mRNA in the presence of chemical substance/The level of expressed mRNA in the absence of chemical substance,"yeast gene YKL151C, incubated two hours with chemical substance",5.6
same,The level of expressed mRNA in the presence of chemical substance/The level of expressed mRNA in the absence of chemical substance,"yeast gene YKL153W, incubated two hours with chemical substance",1.1
